Source: patent publication US7368457B2, “Bridged N-arylsulfonylpiperidines as gamma-secretase inhibitors” (Schering Corporation, priority 2003, dated 2008)

These compounds were tested against T1, gamma secretase (Homo sapiens, UniProt P49768) (assay: Gamma secretase activity in membranes of 293 cells expressing C99 (SPC99-Lon), Aβ 40 / Aβ 42 ECL immunoassay). Settings: not given.
T1 construct: endogenous in cells; host or cells: Membranes of 293 T-REx cells, clone pTRE.15; The enzyme is endogenous; only the substrate SPC99-Lon is transfected
Format: biochemical
Excerpt: Reagents. Antibodies WO2, G2-10, and G2-11 were obtained from Dr. Konrad Beyreuther (University of Heidelberg, Heidelberg, Germany). WO2 recognizes residues 5-8 of Aβ peptide, while G2-10 and G2-11 recognize the specific C-terminal structure of Aβ 40 and Aβ 42, respectively. Biotin-4G8 was purchased from Senetec (St. Louis, Mo.). All tissue culture reagents used in this work were from Life Technologies, Inc., unless otherwise specified. Pepstatin A was purchased from Roche Molecular Biochemicals; DFK167 was from Enzyme Systems Products (Livermore, Calif.).
cDNA Constructs, Tissue Culture, and Cell Line Construction. […] Upon insertion into the membrane, the 17 amino acid signal peptide is processed, leaving an additional leucine at the N-terminus of Aβ SPC99-Ion was cloned into the pcDNA4/TO vector (Invitrogen) and transfected into 293 cells stably transfected with pcDNA6/TR, which is provided in the T-REx system (Invitrogen). The transfected cells were selected in Dulbecco's modified Eagle's media (DMEM) supplemented with 10% fetal bovine serum, 100 units/mL penicillin, 100 µg/mL streptomycin, 250 µg/mL zeocin, and 5 µg/mL blasticidin (Invitrogen). Colonies were screened for Aβ production by inducing C99 expression with […] tetracycline for 16-20 h and analyzing conditioned media with a sandwich immunoassay (see below). One of the clones, designated as pTRE.15, was used in these studies.
Membrane Preparation. C99 expression in cells was induced with […] tetracycline for 20 h. The cells were pretreated with […] 12-myristate 13-acetate (PMA) and […] brefeldin A (BFA) for 5-6 h at 37 C before harvesting. The cells were washed 3 times with cold phosphate-buffered saline (PBS) and harvested in buffer A containing 20 mM Hepes (pH 7.5), 250 mM sucrose, 50 mM KCl, 2 mM EDTA, 2 mM EGTA, and Complete protease inhibitor tablets (Roche Molecular Biochemicals). The cell pellets were flash-frozen in liquid nitrogen and stored at −70 C before use.
To make membranes, the cells were resuspended in buffer A and lysed in a nitrogen bomb at 600 psi. The cell lysate was centrifuged at 1500 g for 10 min to remove nuclei and large cell debris. The supernatant was centrifuged at 100000 g for 1 h. The membrane pellet was resuspended in buffer A plus 0.5 M NaCl, and the membranes were collected by centrifugation at 200000 g for 1 h. The salt-washed membrane pellet was washed again in buffer A and centrifuged at 100000 g for 1 h. The final membrane pellet was resuspended in a small volume of buffer A using a Teflon-glass homogenizer. The protein concentration was determined, and membrane aliquots were flash-frozen in liquid nitrogen and stored at −70° C.
γ-Secretase Reaction and Aβ Analysis. To measure γ-secretase activity, membranes were incubated at 37° C. for 1 h in 50 μL of buffer containing 20 mM Hepes (pH 7.0) and 2 mM EDTA. At the end of the incubation, Aβ 40 and Aβ 42 were measured using an electrochemiluminescence (ECL)-based immunoassay. Aβ 40 was identified with antibody pairs TAG-G2-10 and biotin-WO2, while Aβ 42 was identified with TAG-G2-11 and biotin-4G8. The ECL signal was measured using an ECL-M8 instrument (IGEN International, Inc.) according to the manufacturer's instructions. The data presented were the means of the duplicate or triplicate measurements in each experiment.

Compared with O=C(O[C@H]1CCC2CCCC1N2S(=O)(=O)c1ccc(Cl)cc1)N1CCC(N2CCCCC2)CC1 (stereo partly shown) [Example 16], O=C(O[C@@H]1CCC2CCCC1N2S(=O)(=O)c1ccc(Cl)cc1)N1CCC(N2CCCCC2)CC1 (stereo partly shown) [Example 15] is higher in IC50: roughly 16 nM for the first, 1000 to 10000 nM for the second. The first is the more potent here.

Same assay, conditions: gamma secretase membrane assay; ranges given as 'about 0.1 to about 1.0 μM' and 'about 1 to about 10 μM'; read-out: IC50

CN1CCN(C(=O)O[C@H]2CCC3CCCC2N3S(=O)(=O)c2ccc(Cl)cc2)CC1 (stereo partly shown) [Example 26] and CC(C)N1CCN(C(=O)O[C@H]2CCC3CCCC2N3S(=O)(=O)c2ccc(Cl)cc2)CC1 (stereo partly shown) [Example 21] fall in the same range of IC50: 100 to 1000 nM for the first, 100 to 1000 nM for the second.

O=C(O[C@H]1CCC2CCCC1N2S(=O)(=O)c1ccc(Cl)cc1)N1CCN(CCCO)CC1 (stereo partly shown) [Example 22] and O=C(O[C@H]1CCC2CCCC1N2S(=O)(=O)c1ccc(Cl)cc1)N1CCN(CCO)CC1 (stereo partly shown) [Example 14] fall in the same range of IC50: 100 to 1000 nM for the first, 100 to 1000 nM for the second.

O=C(O[C@H]1CCC2CCCC1N2S(=O)(=O)c1ccc(Cl)cc1)N1CCN(CC2CC2)CC1 (stereo partly shown) [Example 17] and COC(=O)C1CCN(C(=O)O[C@H]2CCC3CCCC2N3S(=O)(=O)c2ccc(Cl)cc2)CC1 (stereo partly shown) [Example 27] fall in the same range of IC50: 100 to 1000 nM for the first, 100 to 1000 nM for the second.

Compared with O=C(O[C@H]1CCC2CCC1N2S(=O)(=O)c1ccc(Cl)cc1)N1CCC(N2CCCCC2)CC1 (stereo partly shown) [Example 43], O=C(OC1CC2CCC1N2S(=O)(=O)c1ccc(Cl)cc1)N1CCC(N2CCCCC2)CC1 (stereo not shown) [Example 35] is higher in IC50: 100 to 1000 nM for the first, 1000 to 10000 nM for the second. The first is the more potent here.

CCN(Cc1ccncc1)C(=O)O[C@H]1CCC2CCCC1N2S(=O)(=O)c1ccc(Cl)cc1 (stereo partly shown) [Example 29] and CCN(CC)C(=O)C1CCCN(C(=O)O[C@H]2CCC3CCCC2N3S(=O)(=O)c2ccc(Cl)cc2)C1 (stereo partly shown) [Example 25] fall in the same range of IC50: 100 to 1000 nM for the first, 100 to 1000 nM for the second.

O=C(OC1C[C@H]2CCC1N2S(=O)(=O)c1ccc(Cl)cc1)N1CCN(C2CCCCC2)CC1 (stereo partly shown) [Example 36] and CCN1CCN(C(=O)OC2C[C@H]3CCC2N3S(=O)(=O)c2ccc(Cl)cc2)CC1 (stereo partly shown) [Example 37] fall in the same range of IC50: 1000 to 10000 nM for the first, 1000 to 10000 nM for the second.

O=C(O[C@H]1CCC2CCCC1N2S(=O)(=O)c1ccc(Cl)cc1)N1CCC[C@H]1CO (stereo partly shown) [Example 28] and O=C(O[C@H]1CCC2CCCC1N2S(=O)(=O)c1ccc(Cl)cc1)N1CCN(c2ccccc2)CC1 (stereo partly shown) [Example 23] fall in the same range of IC50: 100 to 1000 nM for the first, 100 to 1000 nM for the second.

Compared with O=C(O[C@H]1CCC2CCCC1N2S(=O)(=O)c1ccc(Cl)cc1)N1CCC(O)(c2ccc(Cl)cc2)CC1 (stereo partly shown) [Example 24], CC(C)N1CCN(C(=O)OC2C[C@H]3CCC2N3S(=O)(=O)c2ccc(Cl)cc2)CC1 (stereo partly shown) [Example 40] is higher in IC50: 100 to 1000 nM for the first, 1000 to 10000 nM for the second.

O=C(O[C@@H]1C=CC2CCCC1N2S(=O)(=O)c1ccc(Cl)cc1)N1CCC(N2CCCCC2)CC1 (stereo partly shown) [Example 34] was tested, and the IC50 was 100 to 1000 nM.
